Literature values in patent publication US20080200512A1, “Hepatitis C virus polymerase inhibitors” (priority 2007, published 2008).

System: HCV
Details: monotherapy

SMILES: NC(=O)c1ncn([C@@H]2O[C@H](CO)[C@@H](O)[C@H]2O)n1 [ribavirin, 1-((2R,3R,4S,5R)-3,4-dihydroxy-5-hydroxymethyl-tetrahydro-furan-2-yl)-1H-[1,2,4]triazole-3-carboxylic acid amide]
- patients in whom serum amino transferase levels are reduced to normal: 40%
